{"source": "paper PMC4595607", "about": "“mRNA export through an additional cap-binding complex consisting of NCBP1 and NCBP3” (Nature Communications, 2015)", "key": {"[1]": {"target": "T1, NCBP3 (aa 1-282); C17orf85 (Homo sapiens, UniProt Q53F19)", "T1 construct": "N-terminal fragment 1-282 with core RRM; expressed in E. coli BL21-AI, purified; untagged for MST and CD (MBP/His construct cloned)", "T1 sequence (Q53F19 1-282)": "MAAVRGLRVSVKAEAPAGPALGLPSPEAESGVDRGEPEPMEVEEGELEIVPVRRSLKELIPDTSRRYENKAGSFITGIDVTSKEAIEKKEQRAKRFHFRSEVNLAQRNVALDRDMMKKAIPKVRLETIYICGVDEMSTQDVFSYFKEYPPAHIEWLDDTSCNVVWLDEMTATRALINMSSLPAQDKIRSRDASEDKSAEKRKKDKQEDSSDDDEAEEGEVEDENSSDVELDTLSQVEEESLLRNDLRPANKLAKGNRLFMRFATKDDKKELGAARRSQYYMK", "assay": "affinity purification on m7GTP-agarose, Coomassie SDS-PAGE", "type": "binding", "conditions": "compound immobilised as γ-aminohexyl m7GTP-agarose"}, "[2]": {"target": "T2, recombinant NCBP3 from E. coli lysates (Homo sapiens, UniProt Q53F19)", "T2 construct": "full-length, N-terminal His tag (pETG10A-NCBP3; MBP/His version also made), E. coli BL21-AI lysate", "T2 sequence (Q53F19 1-620)": "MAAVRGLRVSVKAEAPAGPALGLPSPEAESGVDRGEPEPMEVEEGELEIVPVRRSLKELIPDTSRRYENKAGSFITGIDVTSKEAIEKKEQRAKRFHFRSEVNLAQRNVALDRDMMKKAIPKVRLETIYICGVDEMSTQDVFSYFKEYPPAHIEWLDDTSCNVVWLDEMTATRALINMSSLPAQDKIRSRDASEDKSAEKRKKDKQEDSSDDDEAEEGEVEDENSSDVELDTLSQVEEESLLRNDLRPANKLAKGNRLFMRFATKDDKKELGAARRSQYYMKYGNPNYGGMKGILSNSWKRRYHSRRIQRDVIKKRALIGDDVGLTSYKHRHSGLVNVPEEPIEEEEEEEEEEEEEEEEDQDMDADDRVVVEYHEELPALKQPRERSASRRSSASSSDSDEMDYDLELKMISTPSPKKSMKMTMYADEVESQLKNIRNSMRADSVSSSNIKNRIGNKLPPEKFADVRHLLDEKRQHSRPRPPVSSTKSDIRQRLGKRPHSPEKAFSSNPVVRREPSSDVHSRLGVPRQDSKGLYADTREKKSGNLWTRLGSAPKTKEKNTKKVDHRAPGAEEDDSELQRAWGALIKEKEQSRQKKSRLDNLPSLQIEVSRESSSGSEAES", "assay": "affinity purification on m7GTP-agarose from E. coli lysate, western blot", "type": "biochemical", "conditions": "compound immobilised as γ-aminohexyl m7GTP-agarose"}, "[3]": {"target": "T3, NCBP3 (aa 1-282); C17orf85 (Homo sapiens, UniProt Q53F19, W155A/D157A/D158A)", "T3 construct": "N-terminal fragment 1-282 with core RRM; expressed in E. coli BL21-AI, purified; untagged for MST and CD (MBP/His construct cloned)", "T3 sequence (Q53F19 1-282 W155A/D157A/D158A)": "T1 sequence (Q53F19 1-282) with W155A, D157A, D158A", "assay": "affinity purification on m7GTP-agarose, Coomassie SDS-PAGE", "type": "binding", "conditions": "compound immobilised as γ-aminohexyl m7GTP-agarose; WLDD motif mutant (ALAA)"}, "[4]": {"test_system": "NCBP3 1-282 (RRM fragment) (Homo sapiens)", "assay": "MST", "conditions": "5' m7G cap (CAP0); 3' amino linker; MST: equal volumes of MST-1 (50 mM Tris-HCl pH 7.4, 150 mM NaCl, 10 mM MgCl2, 0.05% Tween-20; RNA 50 nM) and MST-2 (20 mM Tris-HCl pH 7.4, 300 mM NaCl, 5% …)"}}, "note": "Changes are numbered by the printed parent chain.", "data": [{"molecule": "C[n+]1cn([C@@H]2O[C@H](COP(=O)(O)OP(=O)(O)OP(=O)(O)O)[C@@H](O)[C@H]2O)c2nc(N)[nH]c(=O)c21", "note": "[m^7GTP]", "values": [{"measurement": "affinity purification on m7GTP-agarose, Coomassie SDS-PAGE", "setting": "[1]", "value": "recombinant NCBP3 selectively bound m^7GTP but not GTP"}, {"measurement": "affinity purification on m7GTP-agarose from E. coli lysate, western blot", "setting": "[2]", "value": "m^7GTP versus GTP-affinity purification and western blotting of recombinant NCBP3 from E. coli lysates"}, {"measurement": "loss of binding", "setting": "[3]", "value": "mutation of the NCBP3 WLDD motif to ALAA resulted in loss of binding"}]}, {"molecule": "CAP-RNA oligo (CAP0), DyLight", "values": [{"measurement": "Kd", "setting": "[4]", "value": 15.8, "unit": "µM"}]}]}
